# Experimental data published in the supplement of paper PMC10307832.
# What was measured:
# Test in all cases: relative viability (nuclei count vs DMSO), 5 days (fraction); higher = more cells survive
# AZ628 + Alpelisib = compound: CC1=C(C=C(C=C1)NC(=O)C2=CC(=CC=C2)C(C)(C)C#N)NC3=CC4=C(C=C3)N=CN(C4=O)C [AZ628] + Cc1nc(NC(=O)N2CCC[C@H]2C(N)=O)sc1-c1ccnc(C(C)(C)C(F)(F)F)c1 [Alpelisib] (partner 2 µM)
# Method in brief: (§1)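 Relative viability divides the nuclei count in treated wells by that in vehicle wells. Lung cancer cell lines were seeded in 1536-well plates, dosed by pin tool the next day, and fixed and stained after 5 days in one step with final 0.05% Triton X-100, 1% formaldehyde and 1 ug/ml Hoechst. Dosing was a single drug or a fixed anchor-drug dose plus five library-drug doses (not always all listed) in √10 steps, and values are medians of duplicate plates imaged at 4×.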
# Darinaparsin + Foretinib = compound: C[As](C)SC[C@H](NC(=O)CC[C@H](N)C(=O)O)C(=O)NCC(=O)O [Darinaparsin] + COc1cc2c(Oc3ccc(NC(=O)C4(C(=O)Nc5ccc(F)cc5)CC4)cc3F)ccnc2cc1OCCCN1CCOCC1 [Foretinib] (partner 0.25 µM)
# Method in brief: as §1
# [1] = compound: C[As](C)SC[C@H](NC(=O)CC[C@H](N)C(=O)O)C(=O)NCC(=O)O [Darinaparsin] + C[C@]1(O)C[C@@H](c2nc(-c3ccc4ccc(-c5ccccc5)nc4c3)c3c(N)nccn32)C1 [Linsitinib] (partner 1 µM)
# Method in brief: as §1
# Darinaparsin + AZD7762 = compound: C[As](C)SC[C@H](NC(=O)CC[C@H](N)C(=O)O)C(=O)NCC(=O)O [Darinaparsin] + NC(=O)Nc1cc(-c2cccc(F)c2)sc1C(=O)N[C@H]1CCCNC1 [AZD7762] (partner 0.2 µM)
# Method in brief: as §1
cell line,measurement,setting,value
LCLC-97TM1,relative viability,AZ628 + Alpelisib; first compound 0.08 µM,0.279
same,relative viability,AZ628 + Alpelisib; first compound 0.253 µM,0.205
same,relative viability,AZ628 + Alpelisib; first compound 0.8 µM,0.195
same,relative viability,AZ628 + Alpelisib; first compound 2.53 µM,0.232
same,relative viability,AZ628 + Alpelisib; first compound 8 µM,0.118
same,relative viability,Darinaparsin + Foretinib; first compound 0.08 µM,0.981
same,relative viability,Darinaparsin + Foretinib; first compound 0.8 µM,0.882
same,relative viability,Darinaparsin + Foretinib; first compound 2.53 µM,0.824
same,relative viability,Darinaparsin + Foretinib; first compound 8 µM,1.04
same,relative viability,[1]; first compound 0.08 µM,0.162
same,relative viability,[1]; first compound 0.8 µM,0.164
same,relative viability,[1]; first compound 2.53 µM,0.173
same,relative viability,[1]; first compound 8 µM,0.178
same,relative viability,Darinaparsin + AZD7762; first compound 0.08 µM,0.128
same,relative viability,Darinaparsin + AZD7762; first compound 0.8 µM,0.247
same,relative viability,Darinaparsin + AZD7762; first compound 2.53 µM,0.314
same,relative viability,Darinaparsin + AZD7762; first compound 8 µM,0.254
